Common to all, as to type: in vivo, human
The test system of series [1] is healthy subjects. As to the kind of experiment: Holter ECG, mean hourly heart rate and AUEC, two-way cross-over up-titration study. The note with it: for mean hourly HR change from baseline at nadir (Holter): p <0.05 vs. baseline; for mean hourly HR change from baseline (Holter): Day 3, 2 h post-dose. The procedure:
In a single-center, double-blind, placebo-controlled, randomized, two-way cross-over study, 32 healthy subjects (15 males) received placebo on Day 1 followed by multiple-dose administration of either ponesimod or placebo (ratio 3:1). Ponesimod was administered alternately using regimen A (incremental dose increase from 2 to 20 mg) or B (10 mg for 7 days followed by a single-dose administration of 20 mg). Cardiodynamic (Holter and 12-lead ECG), pharmacokinetic, pharmacodynamic (total lymphocyte count), and safety variables were assessed.
(§1) The enrolled subjects came to the study center for each treatment period on Day −2 and participated in a run-in (all study procedures performed without study drug administration) on Day −1. On Day 1, subjects were randomized to one of the two possible sequences of the two up-titration regimens A and B (ratio 1:1). On Day 1, all subjects received placebo; the first study drug administration (or its matching placebo) occurred on Day 2. Regimen A consisted of the novel up-titration regimen: ponesimod was administered once daily (o.d.) orally at a dose of 2 mg on Day 2 and Day 3, 3 mg on Day 4 and Day 5, 4 mg on Day 6 and Day 7, 5 mg on Day 8, 6 mg on Day 9, 7 mg on Day 10, 8 mg on Day 11, 9 mg on Day 12, 10 mg on Day 13 and Day 14, and 20 mg on Day 15. The reference regimen (regimen B) was based on previous studies (Olsson T. et al., Oral ponesimod in relapsing-remitting multiple sclerosis: a randomised phase II trial. J Neurol Neurosurg Psychiatry. 2014; 85 (11): 1198-1208; and Vaclavkova A. et al., Oral ponesimod in patients with chronic plaque psoriasis: a randomised, double-blind, placebo-controlled phase 2 trial. Lancet. 2014; 384 (9959): 2036-2045) and consisted of an o.d. oral administration of ponesimod at a dose of 10 mg for 7 days (i.e., from Day 2 to Day 8) and 20 mg on Day 9. From Day 10 to Day 15 subjects received o.d. the matching placebo. In the placebo group (1:1 sex ratio), subjects received placebo from Day 1 to Day 15. All treatments were administered at the same time in the morning (fasted condition) with approximately 240 mL of water.
Cardiodynamic endpoints were assessed using Holter and 12-lead ECG. The 24-h Holter recordings were performed on Day -1, Day 1, Day 2, Day 9, Day 13, and Day 15. The 12-h Holter recordings were performed on the other days. In addition, Holter data were used to estimate the area under the effect curve (AUEC) for HR. 12-lead ECGs were performed from Day −1 to Day 16 at pre-dose and 1, 2, 3, 4, 5, 6, 8, 10, and 12 h after study drug administration. An additional 12-lead ECG recording was performed at EOFP and EOS. Heart rate nadir, Emax (maximum decrease of mean hourly HR from baseline, which was defined as the mean of the time-matched assessments measured on Day −1 and Day 1 pre-dose), and occurrence of values of interest (HR <45 bpm, HR decrease from baseline >20 bpm, and PR interval increase from baseline >20 ms), and AV-blocks (i.e., PR interval >210 ms) were obtained with 12-lead ECG.
Cardiodynamic and pharmacodynamic data are expressed as mean±SD. Repeated measure one-way ANOVAs followed by Tukey's multiple-comparisons tests were used to perform inter-group (i.e., placebo vs. regimen A vs. regimen B) comparisons. Student's t-tests were employed to perform intra-group (baseline vs. treatment) comparisons. Differences were considered to be statistically significant at p <0.05. SAS® version 9.2 (SAS Institute, Cary, NC, USA) was used for the statistical analysis and descriptive statistics of clinical data.

The test system of series [2] is peripheral blood lymphocytes. Description: Repeated daily oral dosing, number of peripheral blood lymphocytes (background finding). The note with it: repeated daily oral dosing of 5 mg or more to humans.
A further series has as its system heart rate in humans. Description: Heart rate reduction in humans after administration (background finding). The note with it: transient heart rate reduction.
Series [3] in a line: Plasma concentrations of ponesimod by LC-MS/MS.
Source text: as §1, with “All treatments were administered at the same time in the morning (fasted condition) with approximately 240 mL of water.” left out
Blood samples of about 3 mL were collected in ethylene di-amine tetra acetic acid tubes at pre-dose and 3 h after study drug administration from Day 1 to Day 15 in each treatment period. […] Plasma concentrations of ponesimod were determined using a validated liquid chromatography coupled to tandem mass spectrometry assay with a lower limit of quantification of 1 ng/mL (Brossard P. et al., Pharmacokinetics and pharmacodynamics of ponesimod, a selective S1 P1 receptor modulator, in the first-in-human study. British journal of clinical pharmacology. 2013; 76 (6): 888-896). […]

In series [4] the test system is healthy subjects. As to the kind of experiment: Vital signs, supine blood pressure. The note with it: first administration, mean±SD.
Source text: as §1
Safety and tolerability were evaluated by monitoring adverse events (AEs), vital signs measurements (supine blood pressure), pulmonary function tests (PFTs; i.e., FEV1 and FVC), clinical laboratory, physical, and neurological examinations. Recording of blood pressure was performed at the same time-points as 12-lead ECG.

Results on one compound are retold here after US12336980B2, “Dosing regimen for a selective S1P1 receptor agonist” (Vanda Pharmaceuticals Inc., priority 2014, dated 2025).

For the compound `CCC/N=C1\S/C(=C\c2ccc(OC[C@H](O)CO)c(Cl)c2)C(=O)N1c1ccccc1C` [ponesimod, (R)-5-[3-chloro-4-(2,3-dihydroxy-propoxy)-benz[Z]ylidene]-2-([Z]-propylimino)-3-o-tolyl-thiazolidin-4-one], the “time for mean hourly HR to return to pre-dose values after administration” value in the series on healthy subjects [1] (Day 2 first dose, regimens A and B) lay within 4 to 5 h. In addition, the “decrease in mean hourly HR following administration” value with healthy subjects [1] (Day 4 to last day of treatment) is on record as “no further significant decreases”. The “mean hourly HR change from baseline at nadir (Holter)” value with healthy subjects [1] (regimen A (2 mg), Day 2 first dose, 2 h post-dose, mean±SD) was −6±7.4 bpm; with healthy subjects [1] (regimen B (10 mg), Day 2 first dose, 3 h post-dose, mean±SD) it was −12±6.9 bpm. Further, the “mean hourly HR change from baseline (Holter)” value in the series with healthy subjects [1] (regimen A (2 mg), mean±SD) was −8±5.3 bpm; with healthy subjects [1] (regimen B (10 mg), mean±SD) it was −9±5.7 bpm. Moreover, the “mean AUEC0-12 for HR” value in the series on healthy subjects [1] (regimen A, Day 2 first administration, mean±SD) is recorded as −70.7±38.7 bpm·h; in the series on healthy subjects [1] (regimen A, Day 3, mean±SD) it was −105.5±49.0 bpm·h; with healthy subjects [1] (regimen B (ponesimod 10 mg), Day 3, mean±SD), −146.6±59.8 bpm·h; in the series with healthy subjects [1] (regimen B, Day 2 first administration, mean±SD), −128.6±63.3 bpmh. The “time of nadir of mean hourly HR after administration” value in the series on healthy subjects [1] (regimen A, Day 2 first dose) is 2 h; with healthy subjects [1] (regimen B, Day 2 first dose), 3 h. Moreover, the “reduction in the number of peripheral blood lymphocytes” value in series [2] is “consistent, sustained, and dose-dependent reduction”. In addition, the “time of maximal heart rate reducing effects after administration” value in the series with heart rate in humans was in the range of 1 to 3 h. Besides, in series [3] (human, plasma, oral, 20 mg, regimen A, Day 15, read-out: plasma concentration 3 h after 20 mg of ponesimod), the concentration at 3 h is 144 ± 36.9 ng/mL. For the same compound, the “plasma concentration 3 h after 20 mg of ponesimod” value in series [3] (regimen B, Day 9) was 144.0 ± 41.9 ng/mL. In series [3] (regimen B, visual inspection), the “10 mg steady-state conditions attained” value is given as “Day 6”. Further, the figures for the “decrease in DBP” value in the series with healthy subjects [4] (regimen A) and in the series with healthy subjects [4] (regimen B) were −7±5.3 mmHg and −10±4.4 mmHg, respectively. For the same compound, the “decrease in SBP” value with healthy subjects [4] (regimen A) is reported as −4±4.4 mmHg; with healthy subjects [4] (regimen B) it was −5±7.7 mmHg.
